From publication PMC7403315, “Cyclic peptide FXII inhibitor provides safe anticoagulation in a thrombosis model and in artificial lungs” (Nature Communications, 2020)
Values joined by “and” are separate entries in the source; they are usually repeats but may differ in a detail not shown here. Equal entries are not always repeated. “Also recorded” adds a separate entry of the source. Residues, ends and D or L forms follow the SMILES beside them.

Experiments:
FXIIa = conditions: cited from earlier work
[1] = tested on: coagulation in artificial lung; experiment: Extracorporeal circulation (veno-venous ECMO, artificial lung) in rabbits
Procedure: New Zealand white rabbits of 3.2–4.2 kg (Charles River) were anesthetized via intramuscular injections of ketamine (30 mg kg^−1) and xylazine (5 mg kg^−1). One of the ear veins was catheterized via a 24G winged catheter, and the rabbits were intubated with a 3.0 endotracheal tube. The animals were kept anesthetized throughout the four-hour experiment via inhaled isoflurane (2%) and were ventilated with a peak inspiratory pressure (PIP) of < 20 cmH2O, positive end expiratory pressure of 5 mmHg, tidal volume of 4–6 ml kg^−1, and a respiratory rate of 22–60 breaths per min. Tidal volume and respiratory rate were adjusted to maintain normal arterial blood gases and the listed PIP. Phenylephrine was applied intravenously at a rate of 0.5–5 μg kg^−1 min^−1 to maintain blood pressure. For monitoring blood pressure and collecting blood samples, the rabbits’ right or left carotid arteries were cannulated using a 16-gauge angiocatheter (Becton Dickinson) and were secured with silk ties. The device and circuit were first primed with filtered CO2 and then with saline (NaCl, 0.9% [w/v]) containing solumedrol (30 mg kg^−1). At this point, rabbits of the inhibitor-treated group were injected with 2 mg kg^−1 of FXII900 as a 2 mM solution in PBS (pH 7.4) via the ear vein and the circuit was connected to the rabbits via a venous/venous ECMO configuration using a 14-gauge angiocatheter (Becton Dickinson) and a 6″ pressure tubing that was cut to length from a 24″ pressure tubing (Edwards Lifesciences) in the right and left internal jugular veins, respectively. The circuit was placed in a roller pump (Cobe), and the blood flow was set to 45 ml per min. After connecting the extracorporeal circuit, rabbits of the inhibitor-treated group were infused with 0.075 mg kg^−1 min^−1 FXII900 via the ear vein for the entire duration of the study. Rabbits treated with heparin were initially infused with 60 IU h^−1 (100 IU ml^−1) starting before connection to the circuit. The drip rate was adjusted based on the following nomogram to maintain the ACT in a range between 220 and 300 s. ACT > 320 s: decrease infusion rate by 12 IU h^−1, 320 s > ACT > 300 s: decrease infusion rate by 6 IU h^−1, 300 s > ACT > 220 s: maintain heparin infusion rate, 220 s > ACT > 200 s: increase infusion rate by 6 IU h^−1, 200 s > ACT > 180 s: increase infusion rate by 12 IU h^−1, ACT < 180 s bolus 100 U (1 ml). After four hours, the animals were euthanized by potassium chloride (2 mg kg^−1, IV). At the end of the experiment, 5 ml of heparin was run through the artificial lung while it was still connected to the rabbits.

[2] = tested on: ferric chloride-induced thrombosis; experiment: FeCl3 injury thrombosis model in mesenteric arterioles in mice; format: in vivo, mouse
Procedure: A model of thrombosis in mesenteric arterioles using intravital microscopy was performed according to Angelillo-Scherrer A. et al.[46] with minor modifications. C57BL/6J wild-type mice (male, 10–20 weeks old, 25–30 g, Charles River) were injected intravenously with Rhodamine 6G (100 μl, 1 mM, ACROS Organics product 41902) to fluorescently label the platelets and leucocytes. The mice were injected subcutaneously over the shoulders with FXII900 (5 or 25 mg kg^−1, 0.5 mg ml^−1 in PBS, pH = 7.4) or the negative control FXII901 (5 or 25 mg kg^−1, 0.5 mg ml^−1 in PBS, pH = 7.4), or intravenously (retro-orbital) with 200 IU kg^−1 heparin, and subsequently anesthetized with ketamine (80 mg kg^−1) and xylazine (16 mg kg^−1) via intraperitoneal injection. An abdominal midline incision was made to expose the mesenteric arterioles which were imaged by intravital microscopy using a Mikron IVM500 microscope (Mikron Instruments) coupled with a 50 W mercury lamp (HBO 50 microscope illuminator, Zeiss) attached to combined blue (exciter 455DF70, dichroic 515DRLP, and emitter 515ALP) and green (exciter 525DF45, dichroic 560DRLP, and emitter 565ALP) filter blocks. […] The blood flow, clot formation and vessel occlusion were monitored for 20 or 25 min wherein images were recorded every minute using a digital video cassette recorder (DSR-11, Sony) and analyzed using ImageJ software (version 1.52). Mice were euthanized by final bleeding and cervical dislocation. Time to clot formation and full occlusion of the blood vessel were determined as follows. Clot formation was defined as the formation of a clear aggregation with a diameter of around 10 µm or larger. Occlusion was defined as a clot covering the full diameter of the vessel. Mice showing no speckled pattern at the site of FeCl3 application were assumed to be not injured at the blood vessel and were excluded from the analysis.

[3] = tested on: hemostasis (tail bleeding); experiment: Tail bleeding time and volume (tail transection); conditions: mice, 2 mm tail transection, peptides 25 mg kg^−1 SC, heparin 200 IU kg^−1 IV
Procedure: Mice (8- to 10-week-old) were anesthetized with pentobarbital (50 mg kg^−1, IP), treated with PBS (IV, retro-orbital), 200 IU kg^−1 heparin (IV, retro-orbital), 25 mg kg^−1 FXII900 (SC) or 25 mg kg^−1 FXII901 (SC), and put on a 37 °C heating pad. After 5 min, the distal tail was transected at 2 mm with a disposable surgical blade, and the diameter measured to confirm that it is > 1 mm. The tail was placed in a 50 ml falcon tube filled with phosphate-buffered saline (warmed to 37 °C) and the bleeding time was recorded. The total blood loss was determined by measuring the absorption at 540 nm.

[4] = ECMO 4 h, FXII900 2 mg kg^−1 bolus + 0.075 mg kg^−1 min^−1, heparin to ACT 220–300 s
[5] = repeat study, 20 min, heparin 200 IU kg^−1, n = 10

| Molecule | IC50 (FXIIa) | aPTT prolongation [1, 4] | activated clotting time (ACT) prolongation [1, 4] | bleeding time prolongation ([1]; ECMO, all time points) | volume of the clot in relation to the device volume ([1]; ECMO, end of experiment) | bleeding time (ear incision) ([1]; ECMO, throughout the experiment) | Clot (time to clot formation), individual mice ([2]; 200 U kg-1) | Occlusion (time to full occlusion), individual mice ([2]; 200 U kg-1) | mice showing blood clotting [2, 5] | mice showing vessel occlusion [2, 5] | bleeding time ([3]; 30 min monitored) | blood loss [3] |
| --- | --- | --- | --- | --- | --- | --- | --- | --- | --- | --- | --- | --- |
| NC(N)=NCCC[C@H](NC(=O)[C@H](Cc1ccccc1)NC(=O)[C@H]1CCCN1)C(=O)CCl [PCK, H-D-Pro-Phe-Arg-chloromethylketone] (HELM PEPTIDE1{[dP].F.R.[ClC[*:1]]}$$$$V2.0) | 180 nM |  |  |  |  |  |  |  |  |  |  |  |
| heparin |  | 1.5 fold | 2 fold | 2 fold | 5% | 5 to 10 min | 10 min (2×) and 15 min (3×) and 13 min | 19 min | six | one | bled essentially continuously throughout the monitored 30 min period; also recorded: constantly bleeding throughout the 30 min period | medium to high blood loss; also recorded: either a small (3 mice) or large loss of blood (3 mice); also recorded: lost a large volume of blood |
